Assay results taken from paper PMC7143862, “Prostaglandins Isolated from the Octocoral Plexaura homomalla: In Silico and In Vitro Studies Against Different Enzymes of Cancer” (Marine Drugs, 2020).
Values after ≈ are worked out from the molar mass of the structure shown.

Key:
[1] = system: skin cancer cells; design: method as in PMID 30858059, PMID 28292936; settings: cited from earlier work
[2] = system: L929 fibroblast cell line; experiment: MTT cell proliferation assay, L929; assay type: cell-based; settings: 48 h treatment, healthy mouse fibroblasts
Description: (§1) All materials and reagents for cell culture were purchased from Sigma Aldrich (Saint Louis, MS, USA). For the assay, two human cancer cell lines and two cell lines, one human and one mouse as controls, were used. The human breast cancer cell line (MDA-MB-231 ATCC®) and lung cancer cell line (A549 ATCC®) were maintained in Dulbecco’s modified Eagle medium (DMEM) supplemented with 10% of fetal bovine serum and 1% of penicillin. The primary human dermal fibroblasts from adult skin (HDFa ATCC®) and the cell line from mouse adipose tissue (L929 ATCC®) were maintained in Roswell Park Memorial Institute medium (RPMI) supplemented with 10% of fetal bovine serum and 1% of penicillin, all cells in incubator with 5% CO2 at 37 °C [25].
(§2) Antiproliferative studies were carried out using the modified MTT assay based on a previously published method. In this case, 100 μL of cell suspension from the tumor lines was seeded in 96-well plates with a cellular density of 20,000 cells/well and incubated with 5% CO2 at 37 °C to allow cell adhesion. After 48 h, the supernatant was discarded and the cells were treated with different concentrations (5, 10, 25, 50, and 100 μg/mL) of the natural compounds 1 and 2 and the semisynthetic derivatives 3–5 dissolved in an unsupplemented medium. The plate was incubated for 48 h with 5% CO2 at 37 °C. Subsequently, 100 μL of an MTT solution at 0.5 mg/mL was added to each well and placed back in the incubator for 2 h. The supernatant was removed and 100 μL of DMSO was added to incubate for 15 min. Finally, absorbance (OD) at 595 nm was measured on an iMark ™ Microplate reader (Bio-Rad, Hercules, CA, USA).
(§3) The cytotoxic activity was quantified by calculating the mean inhibitory concentration (IC50), normalizing the absorbance data and converting them into percentages of inhibition. With a nonlinear 4PL regression, the IC50 was found, as developed by Sebaugh, using the PrimsGraph Pad® program (GraphPad Software Inc., San Diego, CA, USA).

[3] = target: T1, p38α-kinase (Homo sapiens, UniProt Q16539); experiment: p38α Kinase Enzyme System, ADP-Glo luminescence; assay type: biochemical
T1 construct: purchased Promega Corporation
T1 sequence (Q16539 whole entry): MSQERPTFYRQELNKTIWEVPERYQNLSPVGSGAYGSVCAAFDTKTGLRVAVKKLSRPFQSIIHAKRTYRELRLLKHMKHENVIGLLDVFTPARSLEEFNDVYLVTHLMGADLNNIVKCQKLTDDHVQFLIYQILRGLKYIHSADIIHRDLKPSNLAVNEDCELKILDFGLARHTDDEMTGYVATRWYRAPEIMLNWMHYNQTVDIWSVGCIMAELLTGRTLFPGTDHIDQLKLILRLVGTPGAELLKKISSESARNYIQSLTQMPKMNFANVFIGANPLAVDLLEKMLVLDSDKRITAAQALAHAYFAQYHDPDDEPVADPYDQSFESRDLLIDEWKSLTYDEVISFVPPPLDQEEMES
Description: Possibly due to a higher concentration of compounds that generate interaction with a site of the enzymes different from the active site, which leads to a lower inhibition, as explained by Abdel-Magid, where it is stated that most of the drugs are designed to join the primary active sites of the enzymes, known as orthostatic sites. However, these can also have secondary sites or allosteric, in which, at the time of the inhibitors join them, a secondary effect is generated causing an increase in enzymatic activity. Therefore, it was not possible to obtain an IC50 value and the results were analyzed by the area under the curve (AUC). This performs the integral of the function of the logarithm of the concentration vs. luminescence for each of the compounds, and in this way to be able to compare the activity between them.
(§4) For the assay of the enzymatic activity, the p38α Kinase Enzyme System (Promega Corporation, Madison, WI, USA) and Src Kinase Enzyme System (Promega Corporation, Madison, WI, USA) kits were used. In this case 25 μL of reaction were added to each well (in the final concentrations shown in Table 4), where 10 μL were from substrate solution (0.2 mg/mL substrate, ATP and 1 × buffer kinase (Promega Corporation)), 10 μL of kinase solution (kinase (Promega Corporation), 1 × buffer kinase (Promega Corporation) and nuclease-free water) and 5 μL of the compounds initially prepared at 1 mM in DMSO and performing serial dilutions in Buffer Kinase (Promega Corporation) from 10 μM to 0.625 μM according to protocol for the kits (Promega Corporation, 2018). The plates were left at room temperature for 1 h, then 25 μL of ADP-Glo ™ Reagent (Promega Corporation) were added, these were placed at room temperature again for 40 min. Finally, 50 μL of the kinase detection reagent will be added and left at room temperature for 45 min [28]. The measurement was made by means of luminescence in an integration time of 0.5 to 1 s in the GENios Plus microplate reader (Grödig/Salzburg, Austria).

[4] = target: T2, Src-kinase (Homo sapiens, UniProt P12931); experiment: Src Kinase Enzyme System, ADP-Glo luminescence; assay type: biochemical; settings: for Src-kinase area under the curve (AUC): log concentration vs. luminescence, 10 to 0.625 μM, smaller area = more inhibition
T2 construct: purchased Promega Corporation
T2 sequence (P12931 whole entry): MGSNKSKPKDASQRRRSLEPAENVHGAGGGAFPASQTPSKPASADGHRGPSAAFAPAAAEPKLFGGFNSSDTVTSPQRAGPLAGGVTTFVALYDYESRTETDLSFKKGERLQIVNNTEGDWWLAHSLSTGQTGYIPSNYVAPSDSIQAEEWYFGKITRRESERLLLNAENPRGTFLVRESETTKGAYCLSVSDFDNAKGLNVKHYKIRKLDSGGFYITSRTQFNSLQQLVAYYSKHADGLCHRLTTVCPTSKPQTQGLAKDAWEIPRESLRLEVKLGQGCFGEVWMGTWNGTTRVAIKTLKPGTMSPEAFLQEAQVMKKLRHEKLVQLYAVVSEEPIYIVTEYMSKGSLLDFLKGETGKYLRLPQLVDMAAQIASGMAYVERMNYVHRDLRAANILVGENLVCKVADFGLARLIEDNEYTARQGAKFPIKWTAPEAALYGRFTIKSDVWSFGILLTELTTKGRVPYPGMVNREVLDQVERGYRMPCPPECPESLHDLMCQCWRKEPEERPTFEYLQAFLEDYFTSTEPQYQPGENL
Description: On the other hand, there are several enzymes that may be involved in several types of cancer, such as non-receptor tyrosine kinase (c-Src) which belongs to the family of kinases and is expressed in all cell types, but its activity is related to advanced malignancies and an unfavorable prognoses of human cancers, so it is considered a molecular target for studies of potential inhibitors. As with the previous enzyme, similar behavior was obtained, so the area under the curve of each of the compounds was also calculated in order to know which of them generate greater inhibition.
as §4

[5] = target: T3, topoisomerase IIα (Homo sapiens, UniProt P11388); experiment: Topoisomerase IIα drug detection kit, kDNA agarose gel; assay type: biochemical; settings: normalized with 1% DMSO
T3 construct: purchased TopoGen
T3 sequence (P11388 whole entry): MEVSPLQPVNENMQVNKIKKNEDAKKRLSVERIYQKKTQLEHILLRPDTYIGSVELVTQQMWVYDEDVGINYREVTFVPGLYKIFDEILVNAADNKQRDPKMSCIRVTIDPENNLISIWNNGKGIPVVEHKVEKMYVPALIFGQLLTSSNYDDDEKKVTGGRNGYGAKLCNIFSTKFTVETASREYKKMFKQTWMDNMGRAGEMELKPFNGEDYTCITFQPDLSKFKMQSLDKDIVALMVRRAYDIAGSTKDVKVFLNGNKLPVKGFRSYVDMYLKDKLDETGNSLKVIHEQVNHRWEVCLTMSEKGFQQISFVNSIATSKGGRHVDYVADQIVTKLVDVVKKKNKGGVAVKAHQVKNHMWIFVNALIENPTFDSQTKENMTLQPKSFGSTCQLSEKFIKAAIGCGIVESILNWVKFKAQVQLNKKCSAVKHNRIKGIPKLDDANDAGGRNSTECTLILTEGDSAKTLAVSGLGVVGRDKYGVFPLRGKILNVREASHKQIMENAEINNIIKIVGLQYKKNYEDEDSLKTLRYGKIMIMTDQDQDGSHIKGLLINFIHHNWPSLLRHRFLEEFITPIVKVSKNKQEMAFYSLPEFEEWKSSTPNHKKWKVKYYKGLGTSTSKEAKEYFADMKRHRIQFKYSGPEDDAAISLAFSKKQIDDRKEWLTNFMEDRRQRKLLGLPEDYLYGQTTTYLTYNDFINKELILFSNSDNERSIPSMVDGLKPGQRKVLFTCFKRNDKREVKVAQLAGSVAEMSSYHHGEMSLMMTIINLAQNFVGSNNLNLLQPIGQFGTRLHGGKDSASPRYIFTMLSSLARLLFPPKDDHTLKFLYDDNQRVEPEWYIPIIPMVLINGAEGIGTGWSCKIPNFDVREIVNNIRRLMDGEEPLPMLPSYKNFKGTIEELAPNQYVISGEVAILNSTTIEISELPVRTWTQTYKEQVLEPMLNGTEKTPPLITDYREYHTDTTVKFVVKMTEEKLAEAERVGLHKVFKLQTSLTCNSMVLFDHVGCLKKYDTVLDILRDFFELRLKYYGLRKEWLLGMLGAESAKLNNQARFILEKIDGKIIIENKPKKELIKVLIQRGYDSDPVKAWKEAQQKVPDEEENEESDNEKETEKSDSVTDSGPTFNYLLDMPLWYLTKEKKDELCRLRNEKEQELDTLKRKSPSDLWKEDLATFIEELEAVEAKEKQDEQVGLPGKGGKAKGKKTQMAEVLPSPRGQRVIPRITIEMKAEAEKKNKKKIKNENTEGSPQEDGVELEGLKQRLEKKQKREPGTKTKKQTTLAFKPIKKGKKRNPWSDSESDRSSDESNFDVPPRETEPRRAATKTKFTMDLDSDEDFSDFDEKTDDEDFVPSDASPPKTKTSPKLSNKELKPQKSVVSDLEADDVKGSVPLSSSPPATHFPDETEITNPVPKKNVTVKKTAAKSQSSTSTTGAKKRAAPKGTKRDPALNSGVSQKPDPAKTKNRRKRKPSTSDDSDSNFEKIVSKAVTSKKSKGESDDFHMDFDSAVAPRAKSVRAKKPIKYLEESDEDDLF
Experimental: The Topoisomerase IIα drug detection kit (TopoGen, Buena Vista, VA, USA) was used. Reactions were made with 4 μL of reaction buffer (50 mM Tris-HCl, 5 mM ATP, 150 mM NaCl, 30 μg/mL bovine serum albumin, 0.5 mM dithiothreitol, 10 mM MgCl2), 1 μL of the enzyme topoisomerase IIα ([…], 2 units), 1 μL of the kDNA substrate (approximately 200 ng) and 1 μL of the compounds with activity at 10 μM, so that the final volume was 20 μL completing with nuclease-free water. These reactions were incubated at 37 °C for 30 min, and the reaction was terminated with 4 μL of stop buffer.

[6] = system: A549 lung cancer cell line; experiment: MTT cell proliferation assay, A549; assay type: cell-based, human; settings: lung cancer cells; for IC50: Homo sapiens, A549, 48 h treatment
Description: as §1, §2, §3

[7] = system: HDFa dermal fibroblast cell line; experiment: MTT cell proliferation assay, HDFa; assay type: cell-based; settings: 48 h treatment, healthy human dermal fibroblasts
Description: as §1, §2, §3

[8] = system: MDA-MB-231 breast cancer cell line; experiment: MTT cell proliferation assay, MDA-MB-231; assay type: cell-based; settings: Homo sapiens, 48 h treatment, breast cancer cells
Description: as §1, §2, §3

[9] = system: lung cancer cells line (A549); design: method as in PMID 28635645; settings: cited from earlier work

Row | Molecule | inhibition at 2.5 µM [3] [%] | inhibition at 2.5 µM [4] [%] | Src-kinase area under the curve (AUC) [4] | inhibition at 10 µM [5] [%] | IC50 A549 ([6]; 48 h treatment) | IC50 [6] [µg/mL] | IC50 [8] [µg/mL] | p38α-kinase % inhibition ([3]; at 2.5 μM) [%] | IC50 [1] [µM] | IC50 [2] [µg/mL] | IC50 [7] [µg/mL] | IC50 [9] [µM]
1 | CCCCC/C=C/C=C1/C(=O)C=CC1C/C=C\CCCC(=O)NCCO (stereo not shown) [15-deoxy-Δ^12,14-PGJ2-EA] |  |  |  |  |  |  |  |  | 20 |  |  | 
2 | CCCCCC(/C=C/[C@H]1C=CC(=O)[C@@H]1C/C=C\CCCC(=O)OC)OC(C)=O (stereo partly shown) [Compound 1, (5Z,13E)-15-acetyl-oxy-9-oxo-prosta-5,10,13-trien-1-oic acid methyl ester] | 42 | < 40 | above 1500 | 45 | ineffective | > 100 | 27.5 (≈ 70.5 µM) |  |  | 71.7 (≈ 184 µM) | 28.3 (≈ 72.4 µM) | 
3 | CCCCCC(O)/C=C/[C@H]1C=CC(=O)[C@@H]1C/C=C\CCCC(=O)O (stereo partly shown) [Compound 2, (5Z,13E) -15-hydroxy-9-oxoprosta 5,10,13 trien-1-oic acid] | 49 | 59 | 921 | 64 |  | 25.2 (≈ 75.3 µM) | 16.5 (≈ 49.2 µM) |  |  | 40.4 (≈ 121 µM) | 17.9 (≈ 53.4 µM) | 
4 | CCCCC[C@H](O)/C=C/[C@H]1C(=O)C[C@H](O)[C@@H]1C/C=C\CCCC(=O)NCCO [PGD2-EA] |  |  |  |  |  |  |  |  | 18 |  |  | 
5 | sardysterol |  |  |  |  |  |  |  |  |  |  |  | 27.3

The next lines start with results.

Row | inhibition at 2.5 µM [3] [%] | inhibition at 2.5 µM [4] [%] | Src-kinase area under the curve (AUC) [4] | inhibition at 10 µM [5] [%] | IC50 A549 ([6]; 48 h treatment) | IC50 [6] [µg/mL] | IC50 [8] [µg/mL] | p38α-kinase % inhibition ([3]; at 2.5 μM) [%] | Molecule | IC50 [1] [µM] | IC50 [2] [µg/mL] | IC50 [7] [µg/mL] | IC50 [9] [µM]
6 | 37 | < 40 |  | 43 |  | > 100 | > 100 |  | CCCCCC(/C=C/[C@H]1CC[C@@H](O)[C@@H]1C/C=C\CCCC(=O)OC)OC(C)=O (stereo partly drawn) [Compound 3, (5Z,9β,13E)-15-acetyloxy-9-hydroxy-prosta-5,13-dien-1-oic acid methyl ester] |  | > 100 | > 100 | 
7 | 37 | < 40 |  | 26 |  | > 100 | > 100 |  | CCCCCC(/C=C/[C@H]1CC[C@H](O)[C@@H]1C/C=C\CCCC(=O)OC)OC(C)=O (stereo partly drawn) [Compound 4, (5Z,9α,13E)-15-acetyloxy-9-hydroxy-prosta-5,13-dien-1-oic acid methyl ester] |  | 54.3 (≈ 138 µM) | 50.7 (≈ 128 µM) | 
8 | 39 | 46 |  | 24 |  | > 100 | > 100 | 36 | CCCCC[C@@H](O)/C=C/[C@H]1CCC(O)[C@@H]1C/C=C\CCCCO (stereo partly shown) [Compound 5, (5Z,13E)-1,9,15-triol-prosta-5,13-diene] |  | > 100 | > 100 | 
9 |  |  |  | 88 |  |  |  |  | COc1cccc2c1C(=O)c1c(O)c3c(c(O)c1C2=O)C[C@@](O)(C(=O)CO)C[C@@H]3O[C@H]1C[C@H](N)[C@H](O)[C@H](C)O1 [doxorubicin, reference compound] |  |  |  | 
